According to patent US4138491A, “Method for treating diabetes” (Daiichi Seiyaku Co., Ltd., priority 1976, dated 1979):
pIC50: −log10 of the molar value.

Tests used:
[1] = system: blood platelet aggregation induced by collagen in rat platelet rich plasma; experiment: Blood platelet aggregation inhibiting activity (collagen induced, in vitro); assay type: cell-based; settings: read-out: Platelet Aggregation Inhibition Activity, ID50
Protocol: It is generally said that blood platelet aggregability is accelerated in a diabetes patient and that this secondarily causes blood vessel disorders. […] Thus, based on this the compounds of the present invention are expected to be useful in preventing and improving the secondary vasular lesions of diabetes mellitus.
Citrated rat blood was centrifuged in order to obtain platelet rich plasma, and to 0.4 ml of this plasma was added 50 μl of sample solution. To the resulting solution was added 50 μl of collagen suspension under stirring, and platelet aggregation reaction was determined according to the method of Born [Nature, Vol. 194, pp. 927 (1962)]. The concentration of the sample (ID50) which inhibits 50% of the aggregation reaction of the control without the test sample added is shown in Table 6 below.

Acute toxicity (rat) = settings: in vivo, read-out: Acute Toxicity (rat) ID50
blood insulin [2] = experiment: Insulin releasing action, fed mice; assay type: in vivo, mouse; settings: fed mice, 25 mg/kg po
Protocol: (§1) Among the test animals fed rats were anesthetized by administration of pentobarbital (40 mg/kg, ip), and administered, intravenously with an isotonic sodium chloride solution of Compound A. An aqueous solution of the sample was orally administered to fed mice. In both cases blood was sampled from the tail vein with the passage of time, and the blood insulin was determined by the radioimmunoassay method of Morgen et al [Diabetes, Vol. 12, pp 115 (1963)]. At the same time blood sugar was also determined. […] The amount of insulin released in Table 4 was obtained by determining the difference between the blood insulin level at 5 points (5, 10, 20, 30, 40 minutes) during a 40 minute period after administration of the sample in the case of rats or 3 points (0.5, 1.0, 2.0 hours) during a 2 hour period after administration of the sample in the case of mice and the blood insulin level at 0 minute just before administration of the sample and then by summing up these differences.

blood sugar level [3] = experiment: Blood sugar lowering activity, fed AγKK (AYKK) mouse, hereditary diabetic; assay type: in vivo; settings: fed AγKK mouse
Protocol: (§2) The compounds of the present invention were orally administered to normal rats, mice, dogs and hereditary diabetic mice(AYKK-mice), and the blood sugar lowering activity was examined.
(§3) Test animals which were used included animals which had been fasted for 24 hours to achieve an empty stomach, and animals which had been fed to achieve a full stomach without any restriction of diet. A sample aqueous solution or suspension was orally administered, and blood was sampled with the passage of time from the tail vein or the cephalic vein in order to determine the level of blood sugar by the glucose-oxidase method.

blood sugar level [4] = experiment: Glucose tolerance test in streptozotocin-induced mildly diabetic rats; assay type: in vivo, rat (Wistar strain); settings: 10 mg/kg PO; glucose 1 g/kg; sum of increments at 15, 30, 60, 90 min vs control; 100 = no improvement
Protocol: (§4) One index for the treatment of diabetes is to improve this glucose tolerance. The compound of the present invention was orally administered to normal rats, Streptozotocin-induced mildly diabetic rats and AYKK-mice, and thereafter glucose was administered intraperitoneally 1 hour later, and the glucose tolerance was examined. […] Further, a lowering of blood sugar in the glucose tolerance test using normal rats was examined with the passage of time, and the results obtained are given in Table 1 below.
(§5) A sample aqueous solution or suspension was orally administered to the test animals which had been fasted for 24 hours and one hour later glucose was intraperitoneally or subcutaneously administered to the test animals. Thereafter, blood was sampled from the tail vein with the passage of time in order to determine the blood sugar level by the glucose-oxidase method.
*4The streptozotocin-induced mildly diabetic rats were produced by […]

blood sugar level [5] = experiment: Blood sugar lowering activity, fed mouse; assay type: in vivo; settings: 25 mg/kg PO
Protocol: as §2, §3

blood sugar level [6] = experiment: Blood sugar lowering activity, fasted rat; assay type: in vivo
Protocol: as §2, §3

blood insulin [7] = experiment: Insulin releasing action, fed rats; assay type: in vivo, rat; settings: 25 mg/kg iv
Protocol: as §1

serum lactate level = experiment: Influence on serum lactate level, repeated administration for 4 days; assay type: in vivo, normal rat; settings: Compound A 200 mg/kg/day (phenformin dose not given)
Protocol: The biguanide drugs heretofore used as a treatment for diabetes are said undesirably to cause acidosis due to an increase of serum lactate level when such drugs are repeatedly administered. The compounds of the present invention were repeatedly administered for 4 days to normal rats and the serum lactate level was determined every day to compare such with the administration of phenformine which is one example of a biguanide drug.
Compound A was repeatedly administered for 4 days to normal rats in a dosage of 200 mg/kg/day, and blood was sampled with the passage of time in order to determine the serum lactate level.

blood sugar level [8] = experiment: Glucose tolerance test in normal rats (oral compound, glucose load 1 hour later); assay type: in vivo, normal rat
Protocol: as §4, §5

blood sugar level [9] = experiment: Blood sugar lowering activity, fasted beagle; assay type: in vivo, beagle dog; settings: 25 mg/kg PO
Protocol: as §2, §3

blood sugar level [10] = experiment: Glucose tolerance test in AYKK mice; assay type: in vivo, AYKK mouse; settings: 25 mg/kg PO; glucose 1 g/kg; sum of increments at 15, 30, 60, 90 min vs control; 100 = no improvement
Protocol: as §4, §5
*5AYKK-mouse was obtained by mating a yellow mouse having symptoms of […]

## c1ccc(C(CC2=NCCN2)c2ccccc2)cc1 [Compound A, 2-(2,2-diphenyl)ethylimidazoline]
[1]
  pIC50: 4.15
Acute toxicity (rat)
  LD50: 562 mg/kg
Blood insulin [2]; after 2 hours, control = 100
  Blood Sugar Level: 69.8%
Blood insulin [2]; sum of differences at 0.5, 1.0, 2.0 hours
  Amount of Insulin Released: 57±14.2 μunit/ml
Blood sugar level [3]; 10 mg/kg PO
  Blood Sugar Level (control = 100), 1 Hr: 72%
  Blood Sugar Level (control = 100), 2 Hrs: 71%
  Blood Sugar Level (control = 100), 3 Hrs: 62%
  Blood Sugar Level (control = 100), 5 Hrs: 63%
Blood sugar level [3]; 25 mg/kg PO
  Blood Sugar Level (control = 100), 1 Hr: 44%
  Blood Sugar Level (control = 100), 2 Hrs: 46%
  Blood Sugar Level (control = 100), 3 Hrs: 41%
  Blood Sugar Level (control = 100), 5 Hrs: 49%
Blood sugar level [4]
  Glucose Tolerance Improving Activity: 25.2%
Blood sugar level [5]; 1 h
  Blood Sugar Level (control = 100), 1 Hr: 54%
Blood sugar level [5]; 2 h
  Blood Sugar Level (control = 100), 2 Hrs: 67%
Blood sugar level [5]; 3 h
  Blood Sugar Level (control = 100), 3 Hrs: 65%
Blood sugar level [5]; 5 h
  Blood Sugar Level (control = 100), 5 Hrs: 76%
Blood sugar level [6]; 10 mg/kg PO
  Blood Sugar Level (control = 100), 1 Hr: 76%
  Blood Sugar Level (control = 100), 2 Hrs: 71%
  Blood Sugar Level (control = 100), 3 Hrs: 71%
  Blood Sugar Level (control = 100), 5 Hrs: 65%
Blood sugar level [6]; 25 mg/kg PO
  Blood Sugar Level (control = 100), 1 Hr: 72%
  Blood Sugar Level (control = 100), 2 Hrs: 67%
  Blood Sugar Level (control = 100), 3 Hrs: 57%
  Blood Sugar Level (control = 100), 5 Hrs: 67%
Blood insulin [7]; after 90 minutes, control = 100
  Blood Sugar Level: 62%
Blood insulin [7]; sum of differences at 5, 10, 20, 30, 40 min
  Amount of Insulin Released: 250±15 μunit/ml
Serum lactate level; 0 Day
  Serum Lactate Level, 0 Day: 0.993±0.051 μ mol/ml
Serum lactate level; After 1 Day
  Serum Lactate Level, After 1 Day: 1.386±0.073 μ mol/ml
Serum lactate level; After 4 Days
  Serum Lactate Level, After 4 Days: 1.125±0.113 μ mol/ml
Blood sugar level [8]; 10 mg/kg PO, glucose 2 g/kg, sum of increments at 15, 30, 60, 90 min vs control, 100 = no improvement
  Glucose Tolerance Improving Activity: 15.7%
Blood sugar level [8]; 10 mg/kg, glucose 2 g/kg, 0 min
  Blood Glucose Level, 0 min: 72 ± 3 mg/dL
Blood sugar level [8]; 10 mg/kg, glucose 2 g/kg, 15 min
  Blood Glucose Level, 15 min: 83 ± 6 mg/dL
Blood sugar level [8]; 10 mg/kg, glucose 2 g/kg, 30 min
  Blood Glucose Level, 30 min: 87 ± 4 mg/dL
Blood sugar level [8]; 10 mg/kg, glucose 2 g/kg, 60 min
  Blood Glucose Level, 60 min: 76 ± 3 mg/dL
Blood sugar level [8]; 10 mg/kg, glucose 2 g/kg, 90 min
  Blood Glucose Level, 90 min: 68 ± 4 mg/dL
Blood sugar level [8]; 10 mg/kg, glucose 2 g/kg, -60 min
  Blood Glucose Level, before glucose load (-60 min.): 84 ± 1 mg/dL
Blood sugar level [8]; normal rats, Table 1, in words
  blood sugar level maintained after glucose load: maintains the blood sugar level in the range of the fasting blood sugar level
  rise in blood sugar level due to the glucose load: scarcely any rise in blood sugar level
Blood sugar level [9]; 1 h
  Blood Sugar Level (control = 100), 1 Hr: 70%
Blood sugar level [9]; 2 h
  Blood Sugar Level (control = 100), 2 Hrs: 66%
Blood sugar level [9]; 3 h
  Blood Sugar Level (control = 100), 3 Hrs: 64%
Blood sugar level [10]
  Glucose Tolerance Improving Activity: 52.5%
